Reference: paper PMC4764977, “AZD8797 is an allosteric non-competitive modulator of the human CX3CR1 receptor” (Biochemical Journal, 2016)
Several values for one entry are separate records, joined by “and”; a condition that tells them apart may be missing. Identical values can stand only once.

Assays:
CX3CR1 [1] = biological target: T1, CX3CR1 (Homo sapiens, UniProt P49238); assay: 125I-CX3CL1 kinetic radioligand binding, CHO-hCX3CR1 membranes; set-up: host or cells: CHO-K1
T1 sequence (P49238 1-355): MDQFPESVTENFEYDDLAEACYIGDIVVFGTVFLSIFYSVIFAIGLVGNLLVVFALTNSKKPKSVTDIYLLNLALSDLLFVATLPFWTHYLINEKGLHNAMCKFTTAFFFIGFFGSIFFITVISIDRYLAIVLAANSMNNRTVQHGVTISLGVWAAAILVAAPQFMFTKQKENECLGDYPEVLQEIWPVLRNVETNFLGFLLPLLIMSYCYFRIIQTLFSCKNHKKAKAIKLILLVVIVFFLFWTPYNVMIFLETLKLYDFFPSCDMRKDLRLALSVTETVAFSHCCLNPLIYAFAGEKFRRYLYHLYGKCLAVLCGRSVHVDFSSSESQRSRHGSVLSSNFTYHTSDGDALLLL
Protocol: Incubation times ranged from 2.5 min to 4 h. For the association experiments, the radioligand data were fitted to the following monophasic exponential association equation and the association rate (kon) was calculated using the added amounts of radioligand (L) and dissociation rate (koff) as constants. koff was measured in separate dissociation experiments. The dissociation data were fitted to the monophasic exponential decay equation: where Y0 is the binding (cpm) at time zero, X is the time and NS is the (non-specific) binding at infinite times. […] Multiple compound dissociation data were fitted to the biphasic exponential decay equation: […]

CX3CR1 [2] = biological target: T1, CX3CR1; assay: [3H]AZD8797 kinetic radioligand binding, CHO-hCX3CR1 membranes; set-up: host or cells: CHO-K1
Protocol: Assays were performed as described under equilibrium binding studies with the additions stated below. Association experiments on [^3H]AZD8797 were performed by adding 1 · Kd of radioligand in assay buffer in a 96-well plate. The reactions were started by addition of CHO-hCX3CR1 membranes at different time points and then incubated for between 1.5 min and 2 h at room temperature before being filtered. For the [^3H]AZD8797 dissociation experiments 1 · Kd of radioligand was incubated with CHO-hCX3CR1 membranes for 1 h at room temperature before starting the dissociation with the addition of 10 μM unlabelled AZD8797. The reactions were incubated for between 2.5 min and 3 h at room temperature before being filtered.
For the association experiments, the radioligand data were fitted to the following monophasic exponential association equation and the association rate (kon) was calculated using the added amounts of radioligand (L) and dissociation rate (koff) as constants. koff was measured in separate dissociation experiments.
The dissociation data were fitted to the monophasic exponential decay equation: […]
where Y0 is the binding (cpm) at time zero, X is the time and NS is the (non-specific) binding at infinite times. Half-life could then be calculated by dividing ln (2) by koff. Multiple compound dissociation data were fitted to the biphasic exponential decay equation: […]

[3] = test system: untransfected CHO-K1 cells; assay: Dynamic mass redistribution (DMR), untransfected CHO-K1 cells; type: cell-based, Chinese hamster
[4] = biological target: T2, CX3CR1 (RPMI-8226 cells endogenously expressing human CX3CR1) (Homo sapiens, UniProt P49238); assay: Cellix flow adhesion of RPMI-8226 cells to full-length CX3CL1; type: cell-based; details: flow 0.5 dyn·cm^−2, 15 min pre-incubation, n=3; read-out: IC50, prevention of capture (adhesion) of RPMI-8226 cells to CX3CL1
T2 construct: RPMI-8226 cells, a human B-lymphocyte cell line endogenously expressing human CX3CR1; CCL-155; host or cells: RPMI-8226
T2 sequence (P49238 1-355): T1 sequence (P49238 1-355)
Protocol: (§1) Adhesion of a human B-lymphocyte cell line (RPMI-8226) or hWB leucocytes to full-length human CX3CL1 were monitored using a microfluidics Cellix VenaFlux platform and Vena 8 Biochips (Cellix). Each channel on the Vena 8 chip was coated with anti-His monoclonal antibody (R&D Systems) followed by His-tagged full-length CX3CL1 (R&D Systems) and blocked for non-specific binding (NSB) with BSA.
(§2) Cell preparations: RPMI-8226 cells were cultured in RPMI 1640 medium with GlutaMAX and 20% FBS (HyClone, Perbio). Before the experiment, cells were centrifuged at 320 g and resuspended to 5 ×10^6 cells·ml^−1 in RPMI 1640 with 1% FBS. hWB with heparin as anti-coagulant was collected from healthy donors and 5 μM DiOC6 was added. AZD8797 was diluted in a 3-fold series in DMSO starting at 3.3 or 30 μM and pre-incubated with RPMI-8226 cells for 15 min or whole blood for 60 min. DMSO concentration held constant for all AZD8797 concentrations (0.1% for the RPMI-8226 experiments and 0.3% for the whole blood experiments). […]
(§3) RPMI-8226 cells in RPMI 1640+1% FBS or whole blood were pumped through the channels at 0.5 dyn·cm^−2 and 2.25 dyn·cm^−2 respectively, for 3 min. Images for quantification were captured using a microscope. Cells adhering to channels were counted and the mean values across five images in each channel were used for calculating the concentration–response curves.

[5] = biological target: T3, CX3CR1 (human whole blood leucocytes) (Homo sapiens, UniProt P49238); assay: Cellix flow adhesion of hWB leucocytes to full-length CX3CL1; type: cell-based; details: flow 2.25 dyn·cm^−2, 60 min pre-incubation, n=2, read-out: IC50, prevention of capture (adhesion) of human blood leucocytes to CX3CL1
T3 construct: hWB with heparin as anti-coagulant was collected from healthy donors; from tissue; host or cells: human whole blood leucocytes (healthy volunteers)
T3 sequence (P49238 1-355): T1 sequence (P49238 1-355)
Protocol: as §1, §2, §3

[6] = in presence of 10 μM AZD8797 + 100 nM CX3CL1, two-phase model, n=3

## CC(C)C[C@H](CO)Nc1nc(S[C@@H](C)c2ccccc2)nc2nc(N)sc12 [AZD8797]
CX3CR1 [1]; [6]
  k1off of 125I-CX3CL1 dissociation (fast first phase): 0.45 min⁻¹
  k2off of 125I-CX3CL1 dissociation (second slower phase): 0.0060 min⁻¹
CX3CR1 [1]; results not shown
  Effect on 125I-CX3CL1 association rate (kon): no effect
  Effect on maximal binding of 125I-CX3CL1 in association experiments: decreased
CX3CR1 [2]; dissociation started with 10 μM unlabelled AZD8797, n=2
  koff: 0.0007 s⁻¹
CX3CR1 [2]; from kobs (n=5) and koff, room temperature
  kon: 233000 M⁻¹ s⁻¹
CX3CR1 [2]; from koff
  Dissociation half-life: approximately 17 min
CX3CR1 [2]; koff/kon, read-out: Kd from rate constants
  Kd: 2.9 nM
[3]
  DMR response in untransfected cells: 38 % of AZD8797 effect in transfected cells
  DMR response in untransfected cells (words): only weakly responded
[4]
  IC50: 6 nM and 5.8 nM
[5]
  IC50: 330 nM
